According to patent US20240000872A1, “NOVEL BACTERIOPHAGE THAT LYSES ACINETOBACTER GENUS BACTERIA HAVING RESISTANCE TO ANTIBIOTICS” (priority 2020, published 2024):

Test system: Acinetobacter baumannii strains
Assay: Antibiotic susceptibility test (CLSI disk diffusion test method, read per CLSI 2016); as to antibiotic susceptibility S/I/R: key: ‘S’ means susceptible; ‘I’ means intermediate; ‘R’ means resistant
Type: cell-based
Set-up: antibiotic susceptibility test value / susceptibility test value (number given before S/I/R) / antibiotic susceptibility value: unit not given here

## CCN1CCN(C(=O)N[C@@H](C(=O)N[C@@H]2C(=O)N3[C@@H]2SC(C)(C)[C@@H]3C(=O)O)c2ccccc2)C(=O)C1=O [Piperalillinc]
Host strain YMC14/06/R2359
  antibiotic susceptibility S/I/R: R
  antibiotic susceptibility value: 128
Host strain YMC14/08/R1169
  antibiotic susceptibility S/I/R: R
  antibiotic susceptibility value: 128
Host strain YMC14/08/T90
  antibiotic susceptibility S/I/R: R
  antibiotic susceptibility value: 128
Host strain YMC15/02/R436
  antibiotic susceptibility S/I/R: R
  antibiotic susceptibility value: 128
Host strain YMC15/02/T28
  antibiotic susceptibility S/I/R: R
  antibiotic susceptibility value: 128
Host strain YMC15/03/R1604
  antibiotic susceptibility S/I/R: R
  antibiotic susceptibility value: 128
Host strain YMC15/09/R1869
  antibiotic susceptibility S/I/R: R
  antibiotic susceptibility value: 128
Host strain YMC16/01/P11
  antibiotic susceptibility S/I/R: R
  antibiotic susceptibility value: 128
Host strain YMC16/01/R123
  antibiotic susceptibility S/I/R: R
  antibiotic susceptibility value: 128
Host strain YMC16/01/R198
  antibiotic susceptibility S/I/R: R
  antibiotic susceptibility value: 128
Host strain YMC16/01/R353
  antibiotic susceptibility S/I/R: R
  antibiotic susceptibility value: 128
Host strain YMC16/01/R380
  antibiotic susceptibility S/I/R: R
  antibiotic susceptibility value: 128
Host strain YMC16/01/R397
  antibiotic susceptibility S/I/R: R
  antibiotic susceptibility value: 128
Host strain YMC16/01/R405
  antibiotic susceptibility S/I/R: R
  antibiotic susceptibility value: 128
Host strain YMC16/03/R4461
  antibiotic susceptibility S/I/R: R
  antibiotic susceptibility value: 128
Host strain YMC16/05/R2210
  antibiotic susceptibility S/I/R: R
  antibiotic susceptibility value: 128
Host strain YMC16/07/R2512
  antibiotic susceptibility S/I/R: R
  antibiotic susceptibility value: 128
Host strain YMC16/09/R2471
  antibiotic susceptibility S/I/R: R
  antibiotic susceptibility value: 128
Host strain YMC16/10/R2537
  antibiotic susceptibility S/I/R: R
  antibiotic susceptibility value: 128
Host strain YMC16/12/B11422
  antibiotic susceptibility S/I/R: R
  antibiotic susceptibility value: 128
Host strain YMC16/12/B11449
  antibiotic susceptibility S/I/R: R
  antibiotic susceptibility value: 128
Host strain YMC16/12/B13325
  antibiotic susceptibility S/I/R: R
  antibiotic susceptibility value: 128
Host strain YMC16/12/P503
  antibiotic susceptibility S/I/R: R
  antibiotic susceptibility value: 128
Host strain YMC16/12/R4637
  antibiotic susceptibility S/I/R: R
  antibiotic susceptibility value: 128
Host strain YMC17/01/B8053
  antibiotic susceptibility S/I/R: R
  antibiotic susceptibility value: 128
Host strain YMC17/01/B10087
  antibiotic susceptibility S/I/R: R
  antibiotic susceptibility value: 128
Host strain YMC17/01/B12075
  antibiotic susceptibility S/I/R: R
  antibiotic susceptibility value: 128
Host strain YMC17/01/B13454
  antibiotic susceptibility S/I/R: R
  antibiotic susceptibility value: 128
Host strain YMC17/01/P518
  antibiotic susceptibility S/I/R: R
  antibiotic susceptibility value: 128
Host strain YMC17/01/R2812
  antibiotic susceptibility S/I/R: R
  antibiotic susceptibility value: 128
Host strain YMC17/02/B14
  antibiotic susceptibility S/I/R: R
  antibiotic susceptibility value: 128
Host strain YMC17/02/B87
  antibiotic susceptibility S/I/R: R
  antibiotic susceptibility value: 128
Host strain YMC17/02/B721
  antibiotic susceptibility S/I/R: R
  antibiotic susceptibility value: 128
Host strain YMC17/02/B4039
  antibiotic susceptibility S/I/R: R
  antibiotic susceptibility value: 128
Host strain YMC17/02/B4520
  antibiotic susceptibility S/I/R: R
  antibiotic susceptibility value: 128
Host strain YMC17/02/B4864
  antibiotic susceptibility S/I/R: S
  antibiotic susceptibility value: 8
Host strain YMC17/02/B8414
  antibiotic susceptibility S/I/R: R
  antibiotic susceptibility value: 128
Host strain YMC17/02/P523
  antibiotic susceptibility S/I/R: R
  antibiotic susceptibility value: 128
Host strain YMC17/02/R541
  antibiotic susceptibility S/I/R: R
  antibiotic susceptibility value: 128
Host strain YMC17/02/R2392
  antibiotic susceptibility S/I/R: R
  antibiotic susceptibility value: 128
Host strain YMC17/03/B4730
  antibiotic susceptibility S/I/R: R
  antibiotic susceptibility value: 128
Host strain YMC17/03/B5000
  antibiotic susceptibility S/I/R: R
  antibiotic susceptibility value: 128
Host strain YMC17/03/P971
  antibiotic susceptibility S/I/R: R
  antibiotic susceptibility value: 128
Host strain YMC17/03/R348
  antibiotic susceptibility S/I/R: R
  antibiotic susceptibility value: 128
Host strain YMC17/03/R585
  antibiotic susceptibility S/I/R: R
  antibiotic susceptibility value: 128
Host strain YMC17/03/R1888
  antibiotic susceptibility S/I/R: R
  antibiotic susceptibility value: 128
Host strain YMC17/03/R3279
  antibiotic susceptibility S/I/R: R
  antibiotic susceptibility value: 128
Host strain YMC17/03/R4077
  antibiotic susceptibility S/I/R: R
  antibiotic susceptibility value: 128
Host strain YMC17/03/R4607
  antibiotic susceptibility S/I/R: R
  antibiotic susceptibility value: 128
Host strain YMC17/04/R488
  antibiotic susceptibility S/I/R: R
  antibiotic susceptibility value: 128
Host strain YMC17/04/R640
  antibiotic susceptibility S/I/R: R
  antibiotic susceptibility value: 128
Host strain YMC/17/05/R1095
  antibiotic susceptibility S/I/R: R
  antibiotic susceptibility value: 128
